Assay results published in patent US6802882B2, “Nitrification inhibitors, and the use of polyacids which contain a nitrification inhibitor for the treatment of inorganic fertilizers” (BASF Aktiengesellschaft, priority 1996, dated 2004).

Legend:
[1] = tested on: nitrification; test: Nitrification inhibiting effect of different pyrazoles; set-up: concentration or dose not given beside the values
[2] = tested on: winter wheat; test: Field tests: grain produce of winter wheat; format: in vivo
Description: (§1) The biological effectiveness of 4-chloro-3-methylpyrazole (4 Cl-3MP) and 3,4-dimethylpyrazole (3,4-DMP) in comparison with DCD and the control was tested in multiple field tests in different environments by means of the features “nitrate content in the basis of the stem”, “NO3— and NH4—N-content in the soil” as well as “grain produce”. The standard methods used in agricultural tests were applied to the laying-out, probing, harvesting and evaluation of the field tests. The analysis of the plant and soil samples followed standard procedures. The remaining measures undertaken in the production, e.g. plant protection, were in accordance with good agricultural practice and were applied uniformly. As a consequence of this treatment the nitrate consumption of the plants is reduced (compare NO3-content in the basis of the stem of rape plants, table 2) and the produce is enhanced (compare grain produce of winter wheat, tables 3a and 3b).

[3] = Storage stability rapid test of treated inorganic fertilizers (loss of nitrification inhibitor); format: physicochemical; conditions: on ammonium sulfate nitrate carrier fertilizer; 4 weeks at 30° C., 40 to 50% relative atmospheric humidity, approx. 1.2 m/s air velocity
Description: The carrier fertilizer used was ammonium sulfate nitrate (ASN). 2 g of pyrazole were dissolved in a little water, and if desired (see Table I) the solution was mixed with a stoichiometric amount of phosphoric acid (1:1) and with from 1 to 10 g of polyacrylic acid or polyphosphoric acid. […] of the carrier fertilizer in the form of granules were prewarmed to approximately 50° C. and slowly sprayed onto a turntable with the mixture containing the pyrazole compound. To accelerate the drying, drying was carried out with hot air, either at the end of the spraying or after interruption of the spraying.
The storage stability of the treated inorganic fertilizers was determined in a rapid test in which the nitrification-inhibited inorganic fertilizers were stored in a ventilated warming cabinet for 4 weeks at 30° C., from 40 to 50% relative atmospheric humidity and approximately 1.2 m/s air velocity. The concentration of nitrification inhibitor on the inorganic fertilizer was determined before and after storage and the loss of nitrification inhibitor determined in percent. Approximately 10 to 30 g of treated inorganic fertilizer were stored in each case. The concentration of pyrazole compound as nitrification inhibitor in this case was from 0.05% by weight to 0.2% by weight at the start of the investigation, based on the treated inorganic fertilizer.

[4] = tested on: nitrification; test: Field tests: NO3- and NH4-N-amounts in soil; format: in vivo; conditions: for Ø NH4-N amount in soil / Ø NO3-N amount in soil: n = 5, locations 1-5; for biological effectiveness (in words): field tests, results of table 1, reduced amounts of the active substance versus DCD
Description: The biological effectiveness of 4-chloro-3-methylpyrazole (4 Cl-3MP) and 3,4-dimethylpyrazole (3,4-DMP) in comparison with DCD and the control was tested in multiple field tests in different environments by means of the features “nitrate content in the basis of the stem”, “NO3— and NH4—N-content in the soil” as well as “grain produce”.
The standard methods used in agricultural tests were applied to the laying-out, probing, harvesting and evaluation of the field tests.
The analysis of the plant and soil samples followed standard procedures. The remaining measures undertaken in the production, e.g. plant protection, were in accordance with good agricultural practice and were applied uniformly.

[5] = tested on: rape plants; test: Field tests: NO3 amount in the basis of the stem of rape plants; format: in vivo; conditions: n = 5, locations 1-5
Description: as §1

Structure (SMILES)	Loss in percent (loss of nitrification inhibitor during storage) [3]	% inhibition per applied amount of ammonium ([1]; column head 1)	% inhibition per applied amount of ammonium ([1]; column head 2)	% inhibition per applied amount of ammonium ([1]; column head 4)	% inhibition per applied amount of ammonium ([1]; column head 6)	% inhibition per applied amount of ammonium ([1]; column head 8)	Ø NH4-N amount in soil ([4]; 2 weeks after application)	Ø NO3-N amount in soil ([4]; 2 weeks after application)	Ø NH4-N amount in soil ([4]; 4 weeks after application)	Ø NO3-N amount in soil ([4]; 4 weeks after application)	Ø NH4-N amount in soil ([4]; 6 weeks after application)	Ø NO3-N amount in soil ([4]; 6 weeks after application)	Ø NH4-N amount in soil ([4]; 8 weeks after application)	Ø NO3-N amount in soil ([4]; 8 weeks after application)	Ø NO3 amount in the basis of the stem of rape plants ([5]; 2 weeks after application)	Ø NO3 amount in the basis of the stem of rape plants ([5]; 4 weeks after application)	Ø NO3 amount in the basis of the stem of rape plants ([5]; 6 weeks after application)	Ø NO3 amount in the basis of the stem of rape plants ([5]; 8 weeks after application)	also measured
Cc1n[nH]cc1Cl [4-Chloro-3-methylpyrazole, 4-chloro-3-methylpyrazole]	100%	88%	66%	48%	32%	21%	115 kg/ha	61 kg/ha	79 kg/ha	50 kg/ha	76 kg/ha	39 kg/ha	40 kg/ha	28 kg/ha	8112 ppm	6629 ppm	4774 ppm	4276 ppm	grain produce of winter wheat ([2]; location 4 (loamy sand)): 56.0 dt/ha; biological effectiveness (in words) [4]: as good as or better than that of DCD
Cc1[nH]ncc1Cl.O=P(O)(O)O [4-Chloro-3-methylpyrazole phosphate, 4-chloro-3-methylpyrazolium dihydrogen Phosphate]	92%	91%	62%	53%	45%	27%	–	–	–	–	–	–	–	–	–	–	–	–	–
N#CN=C(N)N [DCD, reference compound]	–	–	–	–	–	–	87 kg/ha	47 kg/ha	68 kg/ha	44 kg/ha	82 kg/ha	35 kg/ha	39 kg/ha	29 kg/ha	8036 ppm	7022 ppm	4728 ppm	4274 ppm	grain produce of winter wheat ([2]; location 2 (lean clay)): 94.3 dt/ha; grain produce of winter wheat ([2]; location 4 (loamy sand)): 52.6 dt/ha
Cc1cn(CO)nc1C [N-hydroxyl-3,4-DMP, N-hydroxymethyl-3,4-dimethylpyrazole]	–	85%	54%	40%	31%	10%	–	–	–	–	–	–	–	–	–	–	–	–	–
Cc1cn[nH]c1C.O=P(O)(O)O [3,4-Dimethylpyrazole phosphate, 3,4-dimethylpyrazolium dihydrogen Phosphate]	31%	–	–	–	–	–	–	–	–	–	–	–	–	–	–	–	–	–	–
Cc1nn(CO)cc1Cl [N-hydroxy-4Cl-3MP, N-hydroxymethyl-4-chloro-3-methylpyrazole]	–	87%	58%	45%	30%	15%	–	–	–	–	–	–	–	–	–	–	–	–	–

The next lines start with results.

Loss in percent (loss of nitrification inhibitor during storage) [3]	Structure (SMILES)	% inhibition per applied amount of ammonium ([1]; column head 1)	% inhibition per applied amount of ammonium ([1]; column head 2)	% inhibition per applied amount of ammonium ([1]; column head 4)	% inhibition per applied amount of ammonium ([1]; column head 6)	% inhibition per applied amount of ammonium ([1]; column head 8)	Ø NH4-N amount in soil ([4]; 2 weeks after application)	Ø NO3-N amount in soil ([4]; 2 weeks after application)	Ø NH4-N amount in soil ([4]; 4 weeks after application)	Ø NO3-N amount in soil ([4]; 4 weeks after application)	Ø NH4-N amount in soil ([4]; 6 weeks after application)	Ø NO3-N amount in soil ([4]; 6 weeks after application)	Ø NH4-N amount in soil ([4]; 8 weeks after application)	Ø NO3-N amount in soil ([4]; 8 weeks after application)	Ø NO3 amount in the basis of the stem of rape plants ([5]; 2 weeks after application)	Ø NO3 amount in the basis of the stem of rape plants ([5]; 4 weeks after application)	Ø NO3 amount in the basis of the stem of rape plants ([5]; 6 weeks after application)	Ø NO3 amount in the basis of the stem of rape plants ([5]; 8 weeks after application)	also measured
100%	Cc1c[nH]nc1C [3,4-Dimethylpyrazole, 3,4-dimethylpyrazole]	88%	61%	48%	34%	27%	82 kg/ha	54 kg/ha	70 kg/ha	43 kg/ha	71 kg/ha	44 kg/ha	37 kg/ha	28 kg/ha	8105 ppm	6720 ppm	4899 ppm	4454 ppm	grain produce of winter wheat ([2]; location 2 (lean clay)): 97.8 dt/ha; biological effectiveness (in words) [4]: as good as or better than that of DCD
100%	Cc1cc[nH]n1 [3-Methylpyrazole, reference compound]	90%	58%	45%	27%	22%	–	–	–	–	–	–	–	–	–	–	–	–	–
55%	Cc1cc[nH]n1.O=P(O)(O)O [3-Methylpyrazole phosphate, reference compound]	–	–	–	–	–	–	–	–	–	–	–	–	–	–	–	–	–	–
